As a reminder, the log P is the decadic logarithm of the partition coefficient of the neutral form, usually between octanol and water.

The values that follow come from patent US11179381B2, “Intranasal administration of physiologically active substances” (DUTCH RENEWABLE ENERGY B.V., priority 2017, dated 2021).

The conditions of data set [1]: octanol/water partition coefficient; stated without a test; cited from earlier work.
Data set [2] can be described thus: Blood vitamin B12 after intranasal hydroxocobalmin, 75 μg dose (Access Vitamin B12 assay). As to conditions: from average increases of Tables 7 and 8 (75 μg dose, 5 wt. % nicotinamide).
A short description of data set [3]: Blood vitamin B12 after intranasal hydroxocobalmin, 500 μg dose (Access Vitamin B12 assay). Conditions: from average increases of Tables 5 and 6 (500 μg dose, 5 wt. % nicotinamide).
The nature of data set [4]: Blood folate after intranasal spray (Access Folate immunoassay). Type of data set: in vivo, human. As to conditions: from average increases of Tables 3 and 4 (3.5 wt. % nicotinamide).
Experimental: Briefly, a serum specimen was treated to release folate from endogenous binding proteins. After neutralization of the reaction mixture, folate-binding protein, mouse antifolate-binding protein, folic acid-alkaline phosphatase conjugate, and goat antimouse capture antibody coupled to paramagnetic particles were added to the reaction vessel. Folate in the sample competes with the folic acid-alkaline phosphatase conjugate for binding sites on a limited amount of folate-binding protein. Resulting complexes bind to the solid phase via mouse antifolate binding protein. […] The instrument used is a Beckman Coulter DXI 800.
Data set [5] is described as follows: Blood erythropoietin after intranasal rh-Erythropoietin (Access EPO immunoassay). As to conditions: from average increases of Tables 9 and 10 (5 wt. % nicotinamide). Format: in vivo, human. The procedure: As a control a composition comprising 400 μg rh-Erythropoietin was used.
An immunoassay (Access erythropoietin (EPO), Beckman Coultier Inc.) was used to quantify the erythropoietin. Briefly, testing was performed on the Beckman Coulter DxI 800 (Beckman Coulter Inc.). […] The light production is directly proportional to the concentration of EPO in the sample. The amount of analyte in the sample was determined from a stored, multi-point calibration curve. (Instruction manual: Beckman Coulter Access EPO, Beckman Coulter Access Immunoassay Systems, Beckman Coulter, Inc, Fullerton Calif. 2009).

With `C/C1=C2/[N-][C@H]([C@H](CC(N)=O)[C@@]2(C)CCC(=O)NC[C@@H](C)OP(=O)([O-])O[C@H]2[C@@H](O)[C@@H](n3cnc4cc(C)c(C)cc43)O[C@@H]2CO)[C@]2(C)N=C(/C(C)=C3N=C(/C=C4N=C1[C@@H](CCC(N)=O)C\4(C)C)[C@@H](CCC(N)=O)[C@]\3(C)CC(N)=O)[C@@H](CCC(N)=O)[C@]2(C)CC(N)=O.[Co+3].[OH-]` [Hydroxocobalamin, hydroxocobalamin], the “log P” value in data set [1] is −0.9. In addition, the entries for the “Increase in absorption relative to control (absence of nicotinamide)” value in data set [2] and in data set [3] were 192% and 203%, respectively.
For `Nc1nc2ncc(CNc3ccc(C(=O)N[C@@H](CCC(=O)O)C(=O)O)cc3)nc2c(=O)[nH]1` [Folic acid, folic acid], the “log P” value in data set [1] is recorded as −0.02. Further, the “Increase in absorption relative to control (absence of nicotinamide)” value in data set [4] worked out at 184%.
Take “Erythropoietin: rh-Erythropoietin, molecular weight 34000”: the “log P” value in data set [1] is 0. In data set [5], the “Increase in absorption relative to control (absence of nicotinamide)” value was 300%.
